These results are taken from ChEMBL document CHEMBL1201862, “PubChem BioAssay data set” (2004).

What all share (assay): NCI tumour cell line growth inhibition, 48 h
Assay [1] deals with OVCAR-4.
Assay [2] relates to RPMI-8226.
For assay [3], the system named is 786-0.
Assay [4] relates to OVCAR-5.
Assay [5] has as its system HCT-15.
In assay [6] the test system is NCI/ADR-RES.
Assay [7] concerns SNB-75.
Assay [8] concerns UO-31.
Assay [9] concerns HL-60.
Assay [10] deals with PC-3.
Assay [11] has as its system KM12.
Assay [12] deals with NCI-H226.
In assay [13] the test system is TK-10.
In assay [14] the test system is COLO 205.
Assay [15] concerns SW-620.
The subject of assay [16] is CAKI-1.
In assay [17] the test system is K562.
Assay [18] deals with UACC-257.
For assay [19], the system named is Hs-578T.
In assay [20] the test system is SNB-19.

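Following 48 hours of exposure in 96-well plates, responses at five concentrations were used to interpolate endpoints linearly. Here, GI50 denotes the concentration required for 50% inhibition of growth.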 Calls of active or inactive are those of the source. Cut-off read from the data, not from the text of the source: active = GI50 up to about 1.1 µM and inactive = higher.

On to `CC[C@H](CO)Nc1nc(NCc2ccccc2)c2ncn(C(C)C)c2n1` [SELICICLIB], for which the GI50 was 35.2 µM (inactive) in [1]; 24.2 µM (inactive) in [2]; 23.3 µM (inactive) in [3]; 42.8 µM (inactive) in assay [4]; 19.3 µM in [5]; 6.97 µM (inactive) in assay [6]. Also, the GI50 in [7] is 11.3 µM (inactive); in [8] it was 13.6 µM (inactive); in assay [9] it was 21.7 µM (inactive); in [10] it was 19.9 µM (inactive); in [11] it was 5.26 µM (inactive); in [12], 19.2 µM (inactive). Besides, the GI50 in [13] was 64.1 µM (inactive); in [14], 11.6 µM (inactive); in assay [15] it was 82.4 µM (inactive); in assay [16], 6.17 µM (inactive); in [17], 53 µM (inactive).
On to `O=C1OC[C@H]2[C@@H]1[C@H]1O[C@@H]2C2=C(CCC2)C1=O`, for which the GI50 in assay [1] was > 100 µM (inactive); in assay [18] it was > 100 µM (inactive); in assay [2] it was > 100 µM (inactive); in assay [3], > 100 µM (inactive); in assay [4] it was > 100 µM (inactive); in assay [5] it was above 100 µM. The GI50 in assay [6], in assay [7], in assay [8], in assay [9], in assay [10] and in assay [11] was > 100 µM (inactive) in each case. Besides, the GI50 in assay [19], in assay [12], in [13], in [14], in assay [15] and in assay [20] was > 100 µM (inactive) each time. The GI50 in [17] is > 100 µM (inactive).
Take `Cc1c2cnccc2c(C)c2c1c1ccccc1n2CCCN`: the GI50 is 0.14 µM (active) in assay [1]; 1.09 µM (active) in [18]; 0.153 µM (active) in assay [2]; 0.0667 µM (active) in [3]; 0.667 µM (active) in assay [4]; 0.169 µM in assay [5]. Moreover, the GI50 in assay [6] was 0.299 µM (active); in assay [7], 0.736 µM (active); in assay [8] it was 0.83 µM (active); in assay [10], 0.121 µM (active); in assay [11], 0.137 µM (active); in assay [19], 0.374 µM (active). The GI50 was 0.873 µM (active) in [12]; 0.326 µM (active) in assay [13]; 0.222 µM (active) in assay [14]; 0.0787 µM (active) in [15]; 0.424 µM (active) in assay [20]; 0.138 µM (active) in assay [17].
On to `CCOC(=O)Oc1ccc2c(c1)c(=O)c1c(NCCN(CC)CC)ccc3nnn2c31`, for which the GI50 in [1] was 2.55 µM (inactive); in assay [18], 7.35 µM (inactive); in [2], 0.908 µM (active); in assay [3], 0.488 µM (active); in [4], 10.6 µM (inactive); in assay [5], 0.841 µM. For the same compound, the GI50 in assay [6] is 2.39 µM (inactive); in assay [8] it was 0.165 µM (active); in [10], 2.19 µM (inactive); in assay [11], 2.32 µM (inactive); in assay [19] it was 5.11 µM (inactive); in [12], 0.711 µM (active). The GI50 was 3.19 µM (inactive) in assay [13]; 1.01 µM (active) in assay [14]; 0.438 µM (active) in [15]; 1.21 µM (inactive) in assay [20]; 0.948 µM (active) in assay [17].
Regarding `C[NH+]1[C@@H](Cc2ccccc2)C(=O)O[B-]1(F)c1ccccc1` (stereo not given in full), the GI50 was > 100 µM (inactive) in assay [1]; > 100 µM (inactive) in assay [18]; > 100 µM (inactive) in assay [2]; > 100 µM (inactive) in [3]; > 100 µM (inactive) in assay [4]; above 100 µM in [5]. Moreover, the GI50 in assay [6], in assay [7], in assay [8], in [9], in assay [10] and in assay [12] was > 100 µM (inactive) throughout. The GI50 in assay [13], in [14], in [15], in assay [20] and in assay [17] was > 100 µM (inactive) in each case.
Regarding `C[N+]1(C)C2Cc3ccccc3C1Cc1ccccc12`, the GI50 in [1] is > 100 µM (inactive); in [18], > 100 µM (inactive); in assay [2], 62.7 µM (inactive); in assay [3] it was > 100 µM (inactive); in assay [4] it was > 100 µM (inactive); in [5], above 100 µM. The GI50 in assay [6] was > 100 µM (inactive); in [8] it was > 100 µM (inactive); in assay [9] it was > 100 µM (inactive); in assay [10], 75.7 µM (inactive); in assay [11] it was > 100 µM (inactive); in [19], > 100 µM (inactive). The GI50 in assay [12], in assay [13], in assay [14], in [15] and in [20] was > 100 µM (inactive) each time.
As to `CC(=O)N1C(=O)c2cc3ccccc3cc21`, the GI50 in [2] was > 100 µM (inactive); in assay [3], > 100 µM (inactive); in assay [4] it was > 100 µM (inactive); in assay [5], 90.2 µM; in [6], > 100 µM (inactive); in assay [7], 92.5 µM (inactive). Moreover, the GI50 in [8], in assay [9], in assay [10], in assay [19], in assay [12] and in assay [13] was > 100 µM (inactive) throughout. Besides, the GI50 in [14], in [15], in assay [20] and in assay [17] was > 100 µM (inactive) in each case.
As to `CCOC(=O)[C@@H]1ON2O[C@@H](OC3CCCCC3c3ccccc3)C[C@H]3OC(=O)[C@@H]1C32` (stereo not given in full), the GI50 was > 100 µM (inactive) in assay [18]; > 100 µM (inactive) in assay [2]; > 100 µM (inactive) in assay [3]; > 100 µM (inactive) in assay [4]; above 100 µM in [5]; > 100 µM (inactive) in [6]. For the same compound, the GI50 in assay [7] was > 100 µM (inactive); in assay [8] it was > 100 µM (inactive); in assay [11], > 100 µM (inactive); in assay [19] it was > 100 µM (inactive); in assay [12] it was 93.8 µM (inactive); in assay [13] it was > 100 µM (inactive). Also, the GI50 was > 100 µM (inactive) in assay [14], > 100 µM (inactive) in assay [15], 51.9 µM (inactive) in assay [16] and > 100 µM (inactive) in assay [17].
For the compound `CCCCCCCN(CCCCCCC)CC(O)c1cc2ccccc2c2cc(Br)ccc12` (stereo not given), the GI50 in assay [1] is > 100 µM (inactive); in assay [18], 40.4 µM (inactive); in [2], 24.9 µM (inactive); in assay [3], 31.6 µM (inactive); in assay [4], > 100 µM (inactive); in [5], 7.53 µM. The GI50 in assay [6] was > 100 µM (inactive); in [7], 34.9 µM (inactive); in [8], 57.1 µM (inactive); in assay [9], 39.2 µM (inactive); in assay [10], 24.2 µM (inactive); in assay [13], 47.6 µM (inactive). Moreover, the GI50 in assay [14] was 24.8 µM (inactive); in assay [15] it was 23.1 µM (inactive); in assay [20], 38.7 µM (inactive); in [16] it was 47.6 µM (inactive); in assay [17], 30.7 µM (inactive).
With `c1ccc2c(c1)N=C(c1ccc3ccccc3c1)CC(c1cccc3ccccc13)S2` (stereo not given), the GI50 in [1] is 33.6 µM (inactive); in [18], 56.6 µM (inactive); in [2], 11.2 µM (inactive); in assay [3], 44.1 µM (inactive); in assay [4], > 100 µM (inactive); in [5], 21.3 µM. For the same compound, the GI50 in assay [7] was 56.5 µM (inactive); in [8], 59.7 µM (inactive); in [9], 15.1 µM (inactive); in assay [11], 18.9 µM (inactive); in assay [12] it was 45.4 µM (inactive); in assay [13] it was 75.7 µM (inactive). Moreover, the GI50 in [14] was 68.7 µM (inactive); in assay [15] it was 32.8 µM (inactive); in assay [20], 46.8 µM (inactive); in [16] it was 55.8 µM (inactive); in assay [17], 17.2 µM (inactive).
As for `Cc1ccc(/C=N/n2c(=O)[nH]c3ccccc3c2=O)cc1`, the GI50 in assay [18] is > 100 µM (inactive); in assay [2] it was > 100 µM (inactive); in assay [3], > 100 µM (inactive); in assay [4], > 100 µM (inactive); in [5] it was above 100 µM; in [8], > 100 µM (inactive). Besides, the GI50 in [9], in [10], in [11], in assay [19], in assay [12] and in [13] was > 100 µM (inactive) each time. In addition, the GI50 in assay [14], in assay [15], in [20], in [16] and in assay [17] was > 100 µM (inactive) each time.
Turning to `COc1cc(OC)c2c(c1)C(=O)C(CC1(C)OCCCO1)=CC2=O`, the GI50 in [1] is 7.62 µM (inactive); in assay [18] it was 13 µM (inactive); in assay [2], 3.78 µM (inactive); in [3], 9.77 µM (inactive); in assay [4], 16.9 µM (inactive); in assay [5], 3.92 µM. Moreover, the GI50 was 11 µM (inactive) in assay [7]; 11 µM (inactive) in assay [8]; 2.17 µM (inactive) in assay [9]; 14.3 µM (inactive) in [11]; 19.6 µM (inactive) in assay [12]; 12.5 µM (inactive) in assay [13]. The GI50 in assay [14] was 14.3 µM (inactive); in assay [15], 7.57 µM (inactive); in [20], 18.2 µM (inactive); in [16] it was 8 µM (inactive); in assay [17] it was 2.74 µM (inactive).
